Bridge positions count the residues as written; N and C are the ends. Peptide text beside a SMILES is read from it. I, II: the chains in the order shown.
Assays:
[1] = In vitro hydrolysis in mouse plasma; format: in vitro ADME, C3H/He mouse; conditions: 37° C., 30 minutes; for remaining at 0.5 h, 2.46 mM: male, C3H/He mouse plasma, mean of five mice, read-out: Residual amount in plasma (%)
Procedure: To 50 μl of plasma collected and prepared from C3H/He mouse (6 weeks of age, male, weighing 22 g) was added 5 μl of a 27.1 mM solution of a peptide in physiological saline, followed by reaction at 37° C. for 30 minutes.

[2] = Uptake by mouse kidney after tail vein administration; format: in vivo, C3H/He mice; conditions: 250 μmoles/kg tail vein, mean (SEM on next line)
Procedure: Uptake of γ-Glu-Cys-Cys and (γ-Glu-Cys)2 by mouse kidney was compared with that of (Ala-Cys)2 according to the test method described below.
Physiological saline solutions of γ-Glu-Cys-Cys, (γ-Glu-Cys)2 and (Ala-Cys)2 were administered respectively to groups of C3H/He mice (6 weeks of age, male, weighing 22 g) through the tail vein in a dose of 250 μmoles/kg body weight, and the kidney was excised 1, 5 and 20 minutes after the administration, followed by determination of glutamic acid, alanine and cystine in the kidney.

Solubility in water = format: physicochemical; conditions: pH 6.5, 25° C.
Excerpt: The solubility of γ-Glu-Cys-Cys and (γ-Glu-Cys)2 was compared with that of cystine and known cystine-containing peptides.

[3] = In vitro hydrolysis in human plasma; format: in vitro ADME; conditions: 37° C., 30 minutes; for remaining at 0.5 h, 2.18 mM: read-out: Residual amount in plasma (%)
Procedure: It was thus recognized that there was a clear difference between these peptides with respect to utilization in vivo.
To 100 μl of plasma collected and prepared from human was added 10 μl of a 24 mM solution of a peptide in physiological saline. After reaction at 37° C. for 30 minutes, the amount of the remaining peptide was determined.

[4] = biological target: T1, γ-glutamyltransferase prepared from swine kidney (Sus scrofa, UniProt P20735); experiment: Hydrolysis by γ-glutamyltransferase; format: biochemical; conditions: 5 mM peptide, Tris-hydrochloride buffer pH 7, 37° C., 120 minutes
T1 construct: γ-glutamyltransferase prepared from swine kidney; from tissue; host or cells: swine kidney
T1 sequence (P20735 1-379 limits assumed): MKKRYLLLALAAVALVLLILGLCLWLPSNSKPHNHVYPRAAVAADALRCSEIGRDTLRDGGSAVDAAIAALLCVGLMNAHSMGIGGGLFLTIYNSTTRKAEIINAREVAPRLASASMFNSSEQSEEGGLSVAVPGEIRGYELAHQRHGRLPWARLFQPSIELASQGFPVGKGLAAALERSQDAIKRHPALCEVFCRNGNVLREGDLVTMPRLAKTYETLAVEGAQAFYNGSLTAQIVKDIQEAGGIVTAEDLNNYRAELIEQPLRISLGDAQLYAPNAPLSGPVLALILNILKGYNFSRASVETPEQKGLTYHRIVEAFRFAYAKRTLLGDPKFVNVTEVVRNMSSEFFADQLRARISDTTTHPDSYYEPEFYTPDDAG
T1 sequence (P20735 380-568 limits assumed): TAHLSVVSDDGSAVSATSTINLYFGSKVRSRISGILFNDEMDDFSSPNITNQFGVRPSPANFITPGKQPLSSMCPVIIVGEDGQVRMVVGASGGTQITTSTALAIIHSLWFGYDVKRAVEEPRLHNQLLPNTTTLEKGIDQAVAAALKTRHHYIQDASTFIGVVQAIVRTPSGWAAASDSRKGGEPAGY
Procedure: It was thus recognized that there was a difference between these peptides with respect to utilization in vivo.
A peptide was dissolved in Tris-hydrochloride buffer solution (pH 7) in a concentration of 5 mM and γ-glutamyltransferase prepared from swine kidney was added to the solution. After reaction at 37° C. for 120 minutes, the amount of the remaining peptide was determined.

[5] = Stability in solution on heat treatment and on standing; format: physicochemical; conditions: 10 mM
[6] = administered subcutaneously to mice; Anderson and Meister 1983; cited from earlier work
[7] = 25° C.; background statement; cited from earlier work
[8] = Stability on heating in jelly-like nutrient preparation (Example 3); format: physicochemical; conditions: 100° C. for 30 minutes, Example 3 composition

C[C@H](N)C(=O)N[C@@H](CSSC[C@H](NC(=O)[C@H](C)N)C(=O)O)C(=O)O [(Ala-Cys)2, bis-α-L-alanyl-L-cystine, reference compound] (I: H-Ala-Cys-OH / II: H-Ala-Cys-OH; disulfide I:2-II:2)
remaining at 0.5 h, 2.46 mM [1]: 0%
Ala (alanine) in kidney ([2]; 0 min after administration): 2.33 μmole/g wet weight of kidney
Ala (alanine) in kidney ([2]; 1 min after administration): 2.87 μmole/g wet weight of kidney
Ala (alanine) in kidney ([2]; 5 min after administration): 2.59 μmole/g wet weight of kidney
Ala (alanine) in kidney ([2]; 20 min after administration): 2.16 μmole/g wet weight of kidney
Solubility in 1000 ml of water (Solubility in water): > 50 g
remaining at 0.5 h, 2.18 mM [3]: 26%
Hydrolysis by γ-glutamyltransferase [4]: not hydrolyzed

N[C@@H](CC(=O)O)C(=O)N[C@@H](CSSC[C@H](NC(=O)[C@@H](N)CC(=O)O)C(=O)O)C(=O)O [(Asp-Cys)2, N,N'-bis-α-aspartyl-L-cystine] (I: H-Asp-Cys-OH / II: H-Asp-Cys-OH; disulfide I:2-II:2)
Solubility in 1000 ml of water (Solubility in water): > 50 g
remaining at 0.5 h, 2.18 mM [3]: 30%
Hydrolysis by γ-glutamyltransferase [4]: not hydrolyzed

C[C@H](NC(=O)[C@@H](N)CSSC[C@H](N)C(=O)N[C@@H](C)C(=O)O)C(=O)O [(Cys-Ala)2, L-cysteinyl-bis-L-alanine] (I: H-Cys-Ala-OH / II: H-Cys-Ala-OH; disulfide I:1-II:1)
Solubility in 1000 ml of water (Solubility in water): 8.1 g

NCC(=O)N[C@@H](CSSC[C@H](NC(=O)CN)C(=O)O)C(=O)O [(Gly-Cys)2, bis-glycyl-L-cystine, reference compound] (I: H-Gly-Cys-OH / II: H-Gly-Cys-OH; disulfide I:2-II:2)
Solubility in 1000 ml of water (Solubility in water): > 50 g
remaining at 0.5 h, 2.18 mM [3]: 35%

N[C@@H](CCC(=O)N[C@@H](CSSC[C@H](NC(=O)CC[C@H](N)C(=O)O)C(=O)O)C(=O)O)C(=O)O [(γ-Glu-Cys)2, L-glutamyl-L-cysteine disulfide]
remaining at 0.5 h, 2.46 mM [1]: 84%
Hydrolysis in mouse plasma [1]: hydrolyzed in plasma only with difficulty
Glu (glutamic acid) in kidney ([2]; 0 min after administration): 5.54 μmole/g wet weight of kidney
Glu (glutamic acid) in kidney ([2]; 1 min after administration): 14.82 μmole/g wet weight of kidney
Glu (glutamic acid) in kidney ([2]; 5 min after administration): 22.5 μmole/g wet weight of kidney
Glu (glutamic acid) in kidney ([2]; 20 min after administration): 18.14 μmole/g wet weight of kidney
Solubility in 1000 ml of water (Solubility in water): > 70 g
Decomposition on standing ([5]; pH 6.5, 40° C. for 60 days): not decomposed
Decomposition by heat treatment ([5]; pH 6.5, 110° C. for 20 minutes): hardly decomposed
Utilization in the synthesis of kidney glutathione [6]: can be utilized in the synthesis of kidney glutathione
Hydrolysis in human plasma [3]: hydrolyzed in plasma only with difficulty
remaining at 0.5 h, 2.18 mM [3]: 85%
Hydrolysis by γ-glutamyltransferase [4]: almost completely hydrolyzed

N[C@@H](CS)C(=O)NCCCC[C@H](NC(=O)[C@@H](N)CS)C(=O)O [Cys-Lys(Cys), N^2 -cysteinyl-N^6 -L-cysteinyl-L-lysine] (H-Cys-Lys(Cys)-OH)
Solubility in 1000 ml of water (Solubility in water): > 50 g

N[C@@H](CSSC[C@H](N)C(=O)O)C(=O)O [Cystine, L-cystine]
Solubility in 1000 ml of water (Solubility in water): 0.1 g
solubility in water [7]: less than 0.11 g/l

N[C@@H](CCC(=O)N[C@@H](CSSC[C@H](N)C(=O)O)C(=O)O)C(=O)O [γ-Glu-Cys-Cys]
Stability under heating of the jelly-like preparation [8]: stably maintained
remaining at 0.5 h, 2.46 mM [1]: 53%
Hydrolysis in mouse plasma [1]: hydrolyzed in plasma only with difficulty
Glu (glutamic acid) in kidney ([2]; 0 min after administration): 5.54 μmole/g wet weight of kidney
Glu (glutamic acid) in kidney ([2]; 1 min after administration): 13.09 μmole/g wet weight of kidney
Glu (glutamic acid) in kidney ([2]; 5 min after administration): 20.32 μmole/g wet weight of kidney
Glu (glutamic acid) in kidney ([2]; 20 min after administration): 15.1 μmole/g wet weight of kidney
Solubility in 1000 ml of water (Solubility in water): > 70 g
Hydrolysis in human plasma [3]: hydrolyzed in plasma only with difficulty
remaining at 0.5 h, 2.18 mM [3]: 67%

Source: patent US5102871A, “Nutrient composition” (Kyowa Hakko Kogyo Co., Ltd., priority 1989, dated 1992)
